Columns and labels:
[1] = test system: mutant strains of HIV-1; experiment: microbe, parasite or virus in culture; type: cell-based; details: for EC50 / Slope: human PBM cells
Procedure: Cells and viruses. […] Antimicrobial Agents Chemother 1992;36(11): 2423-2431.
Cell pellets were washed, centrifuged, lysed and the proviral DNA extracted as previously described. Cytotoxicity of the compounds was determined using the Promega Cell Titer 96 dye uptake assay (Madison, Wis.) in 1-2 day PHA-stimulated PBM cells after 5 days in culture. The median effective concentration (EC50) and inhibitory concentration (IC50) were derived from the computer-generated median effect plot of the dose-effect data, as described previously. […]
The mutant viruses tested are as follows: xxBRU Pitt (wild type HIV-1; the backbone used to prepare the other site directed mutagens); M184V (methionine to valine change at codon 184); K65R (lysine to arginine change at codon 65); T215Y (threonine to tyrosine change at codon 215); M184V/T215Y (virus with both mutations); 215/41 (virus with two mutations (threonine to tyrosine change at codon 215) and M4 1L (methionine to leucine change at codon 41)); 4X AZT (virus with four mutations associated with AZT therapy); D67N (aspartic acid to asparagine change at codon 67); K70R lysine to arginine change at codon 70); T215Y (defined as above); K219Q (lysine to glutamine change at codon 219); 964 pre (virus from a patient before they were on AZT therapy, and thus AZT sensitive); and 964 post (virus taken from the same patient after they were on AZT therapy, and thus is AZT resistant).

[2] = U.S. Pat. No. 4,916,122; cited from earlier work

For `[N-]=[N+]=N[C@H]1C[C@H](n2ccc(=O)[nH]c2=O)O[C@@H]1CO` [CS-87, 3′-Azido-2′,3′-dideoxyuridine], the “FI^50 (fold increase EC50)” value [1] was 87, the EC50 ([1]; 4X AZT Pitt.) was 17.0 µM and the Slope ([1]; 4X AZT Pitt.) was 0.54. For the same molecule, the EC50 ([1]; 215/4I Pitt.) was 19.1 µM, the Slope ([1]; 215/4I Pitt.) was 0.95 and the “GFI^90 (fold increase EC90)” value ([1]; AZT-Post (964 post)) was 14. For the same molecule, the EC50 ([1]; AZT-Post (964 post)) was 63 µM, the Slope ([1]; AZT-Post (964 post)) was 1.64 and the EC50 ([1]; AZT-Sen. (964 pre)) was 11.1 µM. For the same molecule, the Slope ([1]; AZT-Sen. (964 pre)) was 0.65 ± 0.08, the “sensitivity of AZT-exposed virus” value ([1]; AZT-exposed virus) was “deceased sensitivity” and the EC50 ([1]; HIV-1/LAI) was 4.7 µM. It also gave a Slope ([1]; HIV-1/LAI) of 0.70, an EC50 ([1]; Human immunodeficiency virus 1, PBMC, 4X AZT Pitt.) of 0.3 µM and an EC50 ([1]; Human immunodeficiency virus 1, PBMC, 215/4I Pitt.) of 2.1 µM. For the same molecule, the EC50 ([1]; Human immunodeficiency virus 1, PBMC, AZT-Post (964 post)) was 16.5 µM, the EC50 ([1]; Human immunodeficiency virus 1, PBMC, AZT-Sen. (964 pre)) was 0.4 µM and the EC50 ([1]; Human immunodeficiency virus 1, PBMC, HIV-1/LAI) was 0.2 µM. The EC50 ([1]; Human immunodeficiency virus 1, PBMC, K65R Pitt.) was 1.1 µM, the EC50 ([1]; Human immunodeficiency virus 1, PBMC, L74V Pitt.) was 0.6 µM and the EC50 ([1]; Human immunodeficiency virus 1, PBMC, M184V Pitt.) was 0.6 µM. For the same molecule, the EC50 ([1]; Human immunodeficiency virus 1, PBMC, M184V/T215Y Pitt.) was 1.1 µM, the EC50 ([1]; Human immunodeficiency virus 1, PBMC, T215Y Pitt.) was 0.3 µM and the EC50 ([1]; Human immunodeficiency virus 1, PBMC, xxBRU Pitt. (wild type)) was 1.1 µM. For the same molecule, the EC50 ([1]; K65R Pitt.) was 12 µM, the Slope ([1]; K65R Pitt.) was 0.92 ± 0.07 and the EC50 ([1]; L74V Pitt.) was 3.8 µM. For the same molecule, the Slope ([1]; L74V Pitt.) was 1.18 ± 0.10, the EC50 ([1]; M184V Pitt.) was 2.4 µM and the Slope ([1]; M184V Pitt.) was 1.55. The EC50 ([1]; M184V/T215Y Pitt.) was 5.9 µM, the Slope ([1]; M184V/T215Y Pitt.) was 1.40 and the EC50 ([1]; T215Y Pitt.) was 2.7 µM. The Slope ([1]; T215Y Pitt.) was 1.00 ± 0.11, the “sensitivity of site directed mutant viruses” value ([1]; mutations at other than the 70 codon in the RT region) was “remain sensitive” and the EC50 ([1]; xxBRU Pitt. (wild type)) was 7.3 µM. The Slope ([1]; xxBRU Pitt. (wild type)) was 1.16 and the “toxicity compared with AZT” value [2] was “lower toxicity than AZT”.
